Columns and labels:
barley = test: Test B preemergence/postemergence greenhouse plant response rating 0 to 10; format: in vivo, Hordeum vulgare; details: 0 to 10 scale
Summary of the method: (§1)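 Test chemicals, dissolved in a non-phytotoxic solvent, were applied to soil at planting and, at the same time, over foliage of seedlings at the one to four leaf stage.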

crabgrass [1] = test: Test C preemergence/postemergence greenhouse plant response rating 0 to 100; format: in vivo, Digitaria sanguinalis; details: POSTEMERGENCE; for Plant response rating, Crabgrass: 0 to 100 scale
Summary of the method: (§2)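 Compounds in non-phytotoxic solvent went onto sandy loam before emergence (seeded one day earlier) or onto plants at the one-to-four leaf stage. Duck salad was treated via flood water (~2.5 cm, maintained) over silt loam.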

corn = test: Test B preemergence/postemergence greenhouse plant response rating 0 to 10; format: in vivo, Zea mays; details: 0 to 10 scale
Summary of the method: as §1

downy brome = test: Test C preemergence/postemergence greenhouse plant response rating 0 to 100; format: in vivo, Bromus tectorum; details: POSTEMERGENCE; for Plant response rating Downy Brome: 0 to 100 scale
Summary of the method: as §2

barnyardgrass = test: Test B preemergence/postemergence greenhouse plant response rating 0 to 10; format: in vivo, Echinochloa crus-galli; details: 0 to 10 scale
Summary of the method: as §1

sorghum = test: as above; format: in vivo, Sorghum bicolor; details: 0 to 10 scale
Summary of the method: as §1

rape = test: as above; format: in vivo, Brassica napus; details: 0 to 10 scale
Summary of the method: as §1

chickweed [2] = test: Test C preemergence/postemergence greenhouse plant response rating 0 to 100; format: in vivo, Stellaria media; details: POSTEMERGENCE; for Plant response rating, Chickweed: 0 to 100 scale
Summary of the method: as §2

rice = test: Test C flood test plant response rating 0 to 100; format: in vivo, Oryza sativa; details: for Plant response rating (0 to 100), Rice Japonica: under POSTEMERGENCE head (flood test species); for Plant response rating Rice Japonica: flood test species listed under POSTEMERGENCE, 0 to 100 scale
Summary of the method: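 Compounds in non-phytotoxic solvent applied preemergence to sandy loam one day after planting, postemergence at the 1–4 leaf stage, or to ~2.5 cm floodwater over silt loam.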

crabgrass [3] = test: Test B preemergence/postemergence greenhouse plant response rating 0 to 10; format: in vivo, Digitaria spp.; details: 0 to 10 scale
Summary of the method: as §1

giant foxtail [4] = test: as above; format: in vivo, Setaria faberii; details: 0 to 10 scale
Summary of the method: as §1

duck salad = test: Test C flood test plant response rating 0 to 100; format: in vivo, Heteranthera limosa; details: for Plant response rating (0 to 100), Duck salad: under POSTEMERGENCE head (flood test species); for Plant response rating Duck salad: flood test species listed under POSTEMERGENCE, 0 to 100 scale
Summary of the method: as §2

wheat = test: Test B preemergence/postemergence greenhouse plant response rating 0 to 10; format: in vivo, Triticum aestivum; details: 0 to 10 scale
Summary of the method: as §1

wild oat = test: Test C preemergence/postemergence greenhouse plant response rating 0 to 100; format: in vivo, Avena fatua; details: POSTEMERGENCE; for Plant response rating, Wild oat: 0 to 100 scale
Summary of the method: as §2

wild buckwheat = test: as above; format: in vivo, Polygonum convolvulus; details: POSTEMERGENCE; for Plant response rating, Wild buckwheat: 0 to 100 scale
Summary of the method: as §2

giant foxtail [5] = test: as above; format: in vivo, Setaria faberii; details: POSTEMERGENCE; for Plant response rating, Giant foxtail: 0 to 100 scale
Summary of the method: as §2

chickweed [6] = test: Test B preemergence/postemergence greenhouse plant response rating 0 to 10; format: in vivo, Stellaria media; details: 0 to 10 scale
Summary of the method: as §1

bedstraw = test: Test C preemergence/postemergence greenhouse plant response rating 0 to 100; format: in vivo, Galium aparine; details: POSTEMERGENCE; for Plant response rating, Bedstraw: 0 to 100 scale
Summary of the method: as §2

C=CCN1C(=O)COc2cc(F)c(-c3nn4c(c3Br)CCCC4)cc21 [Compound 41]
30: Plant response rating, Crabgrass (crabgrass [1]; 125 g/ha) | Plant response rating (0 to 100), Downy Brome (downy brome; Rate 16 g/ha) | Plant response rating Duck salad (duck salad; 62 g/ha) | Plant response rating Duck salad (duck salad; 125 g/ha) | Plant response rating (0 to 100), Wild oat (wild oat; Rate 31 g/ha) | Plant response rating, Giant foxtail (giant foxtail [5]; 62 g/ha) | Plant response rating (0 to 100), Giant foxtail (giant foxtail [5]; Rate 31 g/ha)
90: Plant response rating (0 to 100), Chickweed (chickweed [2]; Rate 16 g/ha) | Plant response rating (0 to 100), Chickweed (chickweed [2]; Rate 31 g/ha) | Plant response rating, Bedstraw (bedstraw; 125 g/ha)
2: Plant response rating, Corn (corn; Rate 200 g/ha, PREEMERGENCE)
70: Plant response rating (0 to 100), Bedstraw (bedstraw; Rate 16 g/ha) | Plant response rating (0 to 100), Bedstraw (bedstraw; Rate 31 g/ha)
6: Plant response rating, Barnyardgrass (barnyardgrass; POSTEMERGENCE, Rate 200 g/ha) | Plant response rating, Barnyardgrass (barnyardgrass; Rate 200 g/ha, PREEMERGENCE) | Plant response rating, Sorghum (sorghum; Rate 200 g/ha, POSTEMERGENCE) | Plant response rating, Crabgrass (crabgrass [3]; Rate 200 g/ha, PREEMERGENCE)
50: Plant response rating Downy Brome (downy brome; 62 g/ha) | Plant response rating, Wild oat (wild oat; 125 g/ha) | Plant response rating, Giant foxtail (giant foxtail [5]; 125 g/ha)
45: Plant response rating (0 to 100), Rice Japonica (rice; Rate 16 g/ha)
5: Plant response rating, Barley (barley; POSTEMERGENCE, Rate 50 g/ha) | Plant response rating, Barley (barley; POSTEMERGENCE, Rate 200 g/ha) | Plant response rating, Corn (corn; POSTEMERGENCE, Rate 200 g/ha) | Plant response rating, Sorghum (sorghum; POSTEMERGENCE, Rate 50 g/ha) | Plant response rating, Crabgrass (crabgrass [3]; POSTEMERGENCE, Rate 200 g/ha) | Plant response rating, Giant foxtail (giant foxtail [4]; Rate 200 g/ha, POSTEMERGENCE) | Plant response rating, Wheat (wheat; POSTEMERGENCE, Rate 50 g/ha) | Plant response rating, Wheat (wheat; Rate 200 g/ha, POSTEMERGENCE)
100: Plant response rating, Chickweed (chickweed [2]; 62 g/ha) | Plant response rating, Chickweed (chickweed [2]; 125 g/ha) | Plant response rating, Wild buckwheat (wild buckwheat; 62 g/ha) | Plant response rating, Wild buckwheat (wild buckwheat; 125 g/ha) | Plant response rating (0 to 100), Wild buckwheat (wild buckwheat; Rate 31 g/ha)
60: Plant response rating Downy Brome (downy brome; 125 g/ha)
10: Plant response rating (0 to 100), Crabgrass (crabgrass [1]; Rate 16 g/ha) | Plant response rating (0 to 100), Crabgrass (crabgrass [1]; Rate 31 g/ha) | Plant response rating, Rape (rape; POSTEMERGENCE, Rate 50 g/ha) | Plant response rating, Rape (rape; PREEMERGENCE, Rate 50 g/ha) | Plant response rating, Rape (rape; Rate 200 g/ha, POSTEMERGENCE) | Plant response rating, Rape (rape; Rate 200 g/ha, PREEMERGENCE) | Plant response rating (0 to 100), Duck salad (duck salad; Rate 31 g/ha) | Plant response rating, Chickweed (chickweed [6]; POSTEMERGENCE, Rate 50 g/ha) | Plant response rating, Chickweed (chickweed [6]; POSTEMERGENCE, Rate 200 g/ha) | Plant response rating, Chickweed (chickweed [6]; PREEMERGENCE, Rate 50 g/ha) | Plant response rating, Chickweed (chickweed [6]; Rate 200 g/ha, PREEMERGENCE)
95: Plant response rating (0 to 100), Wild buckwheat (wild buckwheat; Rate 16 g/ha)
1: Plant response rating, Barley (barley; PREEMERGENCE, Rate 50 g/ha) | Plant response rating, Barley (barley; Rate 200 g/ha, PREEMERGENCE) | Plant response rating, Sorghum (sorghum; Rate 200 g/ha, PREEMERGENCE) | Plant response rating, Giant foxtail (giant foxtail [4]; PREEMERGENCE, Rate 50 g/ha) | Plant response rating, Wheat (wheat; PREEMERGENCE, Rate 50 g/ha)
80: Plant response rating Rice Japonica (rice; 62 g/ha) | Plant response rating, Bedstraw (bedstraw; 62 g/ha)
40: Plant response rating (0 to 100), Downy Brome (downy brome; Rate 31 g/ha) | Plant response rating, Wild oat (wild oat; 62 g/ha)
20: Plant response rating, Crabgrass (crabgrass [1]; 62 g/ha) | Plant response rating (0 to 100), Wild oat (wild oat; Rate 16 g/ha) | Plant response rating (0 to 100), Giant foxtail (giant foxtail [5]; Rate 16 g/ha)
3: Plant response rating, Barnyardgrass (barnyardgrass; POSTEMERGENCE, Rate 50 g/ha) | Plant response rating, Crabgrass (crabgrass [3]; POSTEMERGENCE, Rate 50 g/ha) | Plant response rating, Giant foxtail (giant foxtail [4]; Rate 200 g/ha, PREEMERGENCE) | Plant response rating, Wheat (wheat; Rate 200 g/ha, PREEMERGENCE)
65: Plant response rating (0 to 100), Rice Japonica (rice; Rate 31 g/ha)
4: Plant response rating, Barnyardgrass (barnyardgrass; PREEMERGENCE, Rate 50 g/ha) | Plant response rating, Giant foxtail (giant foxtail [4]; POSTEMERGENCE, Rate 50 g/ha)
0: Plant response rating, Corn (corn; PREEMERGENCE, Rate 50 g/ha) | Plant response rating, Sorghum (sorghum; PREEMERGENCE, Rate 50 g/ha) | Plant response rating, Crabgrass (crabgrass [3]; PREEMERGENCE, Rate 50 g/ha) | Plant response rating (0 to 100), Duck salad (duck salad; Rate 16 g/ha)
85: Plant response rating Rice Japonica (rice; 125 g/ha)
